The target in one assay is T1, HDAC8 (Homo sapiens, UniProt Q9BY41).
T1 construct: purchased
T1 sequence (Q9BY41 1-377): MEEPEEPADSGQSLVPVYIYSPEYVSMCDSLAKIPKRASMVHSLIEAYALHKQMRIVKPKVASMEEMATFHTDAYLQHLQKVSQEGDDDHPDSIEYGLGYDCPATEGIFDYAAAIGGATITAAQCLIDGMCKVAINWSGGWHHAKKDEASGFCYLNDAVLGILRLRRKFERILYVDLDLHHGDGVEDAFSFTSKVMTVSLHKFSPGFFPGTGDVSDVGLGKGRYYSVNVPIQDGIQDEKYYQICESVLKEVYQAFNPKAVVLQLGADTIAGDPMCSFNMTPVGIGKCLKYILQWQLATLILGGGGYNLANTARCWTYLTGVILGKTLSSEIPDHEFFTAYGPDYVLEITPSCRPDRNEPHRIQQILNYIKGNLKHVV
Put plainly: HPLC-based assay with purified HDAC8 (de(thio)acetylation of peptides). Type of assay: biochemical. Details: key to HDAC8 (sensitive / resistant to HDAC8): +: Sensitive to HDAC8; —: Resistant to HDAC8. The settings on record: for formation of de(thio)acetylated peptide product by HDAC8: 0.3 mM peptide, 1.5 μM HDAC8, 2 hours at room temperature; for HDAC8 (sensitive / resistant to HDAC8): enzymatic dethioacetylation by HDAC8. As for the experimental part:
To test the foregoing premise, peptides 1b, 2, and 3a were allowed to be incubated for 2 hours at room temperature in the HDAC8 assay buffer in a HPLC-based HDAC8 assay. […] FIG. 5 provides representative HPLC chromatograms from HDAC8 assays with peptides 1b, 2, and 3a. All assays were performed in duplicate and essentially the same HPLC chromatograms were obtained for the duplicates. The small peak with tR˜27 minutes in the second chromatogram was from a minor impurity in the purified peptide 2 sample, rather than the dethioacetylated product. The lack of detectable dethioacetylation of peptide 3a was apparent from the absence of a peak with tR˜34 minutes, shown for peptide 3c in the third chromatogram.
Assay with purified HDAC8. The purified HDAC8 could be obtained from a commercial source for use with a HPLC-based HDAC8 assay. In brief, a HDAC8 assay solution had the following components: 25 mM Tris.HCl (pH 8.0), 137 mM NaCl, 2.7 mM KCl, 1 mM MgCl2, 1 mg/mL BSA (SIGMA Cat. #A3803 with reduced fatty acid content), 0.3 mM peptide 1b, 2, or 3a, and 1.5 μM HDAC8. […] An enzymatic reaction was initiated by the addition of HDAC8 at room temperature and was allowed to be incubated at room temperature for 2 hours before being quenched with the following stop solution: 1.0 M HCl and 0.16 M acetic acid. The quenched assay solutions were directly injected into a reversed-phase HPLC C18 column (100 Å, 0.46×25 cm), eluting with the following gradients of ddH2O containing 0.05% (v/v) trifluoroacetic acid (mobile phase A) and acetonitrile containing 0.05% (v/v) trifluoroacetic acid (mobile phase B): linear increase from 0% B to 35% B (for the assay with peptide 2 or 1b) or 40% B (for the assay with peptide 3a or […]) from 0-40 minutes (1 mL/min), and UV monitoring at 214 nm. […] The enzymatically formed peptide 1c was confirmed by its comigration with the chemically synthesized authentic sample and by MALDI-TOF mass spectrometric analysis, and was quantified by HPLC peak integration and comparison with that of synthetic authentic sample.

In another assay the test system is SIRT1, SIRT2, and SIRT3. Put plainly: Dethioacetylation of inhibitor peptides under the sirtuin inhibition assay conditions. As to conditions: same assay conditions as SIRT1/SIRT2/SIRT3 inhibition assays. The format is biochemical, human. As to the method:
Inhibition assays with purified SIRT1, SIRT2, and SIRT3. GST-SIRT1 that could be produced in a laboratory was used for the SIRT1 inhibition assay. SIRT2 and SIRT3 are obtainable from commercial sources known to those skilled in the art. Consistent HPLC-based assay procedures were used for the inhibition assays with SIRT1, SIRT2, and SIRT3. In brief, an inhibition assay solution had the following components: 25 mM (or 50 mM for SIRT2 assay) Tris.HCl (pH 8.0) 137 mM NaCl, 2.7 mM KCl, 1 mM MgCl2, 1 mg/mL BSA (SIGMA Cat. #A3803 with reduced fatty acid content, for SIRT2 assay only), 0.5 mM β-NAD^+, 0.3 mM peptide substrate (peptide 1b for SIRT1 and SIRT2 assays; peptide 3b for SIRT3 assay), an inhibitor (peptide 1a, 2, or 3a) with varied concentrations including 0, and an enzyme (GST-SIRT1, 0.15 μM; SIRT2, 0.3 μM; or SIRT3, 2.0 μM). […] An enzymatic reaction was initiated by the addition of an enzyme at 37° C. and was allowed to be incubated at 37° C.: 10 minutes as follows: for SIRT1 assay, or 60 minutes for SIRT2 and SIRT3 assays. Incubation was quenched at the indicated time with the following stop solution: 100 mM HCl and 0.16 M acetic acid. The conversion of the limiting substrate to the product was maintained at ≦12%. The quenched assay solutions were directly injected into a reversed-phase HPLC C18 column (100 Å, 0.46×25 cm), eluting with the following gradients of ddH2O containing 0.05% (v/v) trifluoroacetic acid (mobile phase A) and acetonitrile containing 0.05% (v/v) trifluoroacetic acid (mobile phase B): linear increase from 0% B to 35% B (for SIRT1 assay) or 40% B (for SIRT2 and SIRT3 assays) from 0-40 minutes (1 mL/min), and UV monitoring at 214 nm. The enzymatic deacetylation products (peptide 1c in SIRT1 and SIRT2 assays; peptide 3c in SIRT3 assay) were confirmed by their comigration with the chemically synthesized authentic samples and by MALDI-TOF mass spectrometric analysis, and were quantified by HPLC peak integration and comparison with those of synthetic authentic samples. […] All peptide stock solutions were prepared in ddH2O. […]

Molecules are shown by their SMILES. Non-standard residues stand in square brackets, D forms with d. Residues, ends and D or L forms follow the SMILES beside them. Lys(Thioacetyl) = CC(=S)NCCCC[C@H](N)C(=O)O

With `CC[C@H](C)[C@H](NC(=O)[C@@H](NC(=O)[C@H](CCCCN)NC(=O)[C@H](CCCNC(=N)N)NC(=O)[C@H](CC(C)C)NC(=O)[C@H](CC(C)C)NC(=O)[C@H](CCCNC(=N)N)NC(=O)[C@H](CCCNC(=N)N)NC(=O)[C@H](CCSC)NC(=O)[C@@H](NC(=O)[C@H](CCCCNC(C)=S)NC(=O)CNC(=O)[C@H](CO)NC(=O)[C@H](CCCNC(=N)N)NC(=O)[C@@H](NC(=O)[C@H](CCCCN)NC(=O)[C@@H]1CCCN1C(=O)[C@H](CC(C)C)NC(=O)[C@H](CCCNC(=N)N)NC(=O)[C@@H](N)CCCCN)[C@@H](C)O)C(C)C)[C@@H](C)CC)C(=O)O` [Peptide 3a] (H-KRLPKTRSG[Lys(Thioacetyl)]VMRRLLRKII-OH), at HDAC8, the “formation of de(thio)acetylated peptide product by HDAC8” value was “no detectable formation” and the “HDAC8 (sensitive / resistant to HDAC8)” value was “—”. For the same compound, the “formation of dethioacetylated peptide under sirtuin inhibition assay conditions” value in the assay on SIRT1, SIRT2, and SIRT3 is listed as “did not give rise to detectable formation”.
For `CC[C@H](C)[C@H](NC(=O)[C@@H](NC(=O)[C@H](CCCCNC(C)=S)NC(=O)[C@H](CC(=O)O)NC(=O)[C@H](CO)NC(=O)[C@@H]1CCCN1C(=O)[C@@H](N)CCSC)[C@@H](C)O)C(=O)NCC(=O)NCC(=O)O` [Peptide 2] (H-MPSD[Lys(Thioacetyl)]TIGG-OH), in that order: “no detectable formation”, “—^d” and “detectable formation”.
